What was measured:
[1] = tested on: Escherichia coli ATCC25922; test: MIC assay, Escherichia coli; type: cell-based; settings: LB, 16 h, 37 °C, n = 2
Protocol: (§1) Lapcin was tested for antimicrobial activity against the bacteria and fungi shown in Supplementary Table 4. […] Lapcin was dissolved in sterile DMSO to make a 3.2 mg/mL working solution. Lapcin was diluted across 96-well plates using a 2-fold serial dilution method to give a concentration range of 64 to 0.06 µg/mL in 50 µL of LB broth. A single colony of each test organism was grown in either 5 mL LB (bacteria) or YPD (fungi) medium overnight at 37 °C or 30 °C, respectively. Saturated overnight cultures were diluted 5,000-fold, and then 50 µL of dilute cells were transferred into each well of the assay plates. Finally, each well contains a total volume of 100 µL.

Colo205 cells = test: cells; type: cell-based, human; settings: colon cancer; MTT, 48 h, 37 °C; RPMI-1640 + 10% FBS; 2,500 cells/well; absorbance 570 nm; n = 3 biologically independent
Protocol: (§2) An MTT (2-(4,5-dimethylthiazol-2-yl)−2,5-diphenyltetrazolium bromide) assay was used to determine the cytotoxicity of lapcin towards diverse cancer cell lines. Lapcin was dissolved in DMSO to make a 3.2 mg/mL working solution. For each cancer line detailed in Supplementary Table 5, cells at 80-90% confluency were counted and seeded in 96-well, flat bottom microplates and incubated at 37 °C with a 5% CO2 atmosphere. Outer wells were unused to avoid edge effects. After adhering for 24 h, the medium was sterilely aspirated and replaced with 100 µL of fresh medium containing lapcin or a control compound serially diluted at concentrations ranging from 8,000 to 0.00382 ng/mL. After 48 h (37 °C, 5% CO2), the medium was carefully removed and 110 µL of freshly prepared MTT solution (10 µL of 5 mg/mL MTT in PBS (pH 7.4) premixed with 100 µL of complete medium) was added to each well. After 3 h at 37 °C with 5% CO2, 100 µL of solubilization solution (40% DMF, 16% SDS and 2% acetic acid in H2O) was added to each well and precipitated formazan crystals were allowed to dissolve for 4 h. The absorbance of each well was then measured at 570 nm using a Tecan microplate reader.

HEK293 cells = test: cells; type: cell-based, human; settings: normal cell; MTT, 48 h, 37 °C; DMEM + 10% FBS; 5, 000 cells/well; absorbance 570 nm; n = 3 biologically independent
Protocol: as §2

A549 cells = test: cells; type: cell-based, human; settings: lung cancer; MTT, 48 h, 37 °C; DMEM + 10% FBS + NEAA; 2,500 cells/well; absorbance 570 nm; n = 3 biologically independent
Protocol: as §2

U2OS (Bone) cells = test: cells; type: cell-based, human
Protocol: as §2

HCC1806 cells = test: cells; type: cell-based, human; settings: breast cancer; MTT, 48 h, 37 °C; RPMI-1640 + 10% FBS; 2,500 cells/well; absorbance 570 nm; n = 3 biologically independent
Protocol: as §2

Hela (Cervical) cells = test: cells; type: cell-based, human; settings: cervical cancer; MTT, 48 h, 37 °C; DMEM + 10% FBS; 2,500 cells/well; absorbance 570 nm; n = 3 biologically independent
Protocol: as §2

SW480 cells = test: cells; type: cell-based, human; settings: colon cancer; MTT, 48 h, 37 °C; DMEM + 10% FBS; 10,000 cells/well; absorbance 570 nm; n = 3 biologically independent
Protocol: as §2

NCI-H1299 cells = test: cells; type: cell-based, human; settings: lung cancer; MTT, 48 h, 37 °C; RPMI-1640 + 10% FBS; 2,500 cells/well; absorbance 570 nm; n = 3 biologically independent
Protocol: as §2

MCF 7 cells = test: cells; type: cell-based, human; settings: breast cancer; MTT, 48 h, 37 °C; DMEM + 10% FBS; 8,000 cells/well; absorbance 570 nm; n = 3 biologically independent
Protocol: as §2

NCI-H226 cells = test: cells; type: cell-based, human
Protocol: as §2

HT29 cells = test: cells; type: cell-based, human; settings: colon cancer; MTT, 48 h, 37 °C; DMEM + 10% FBS; 2,500 cells/well; absorbance 570 nm; n = 3 biologically independent
Protocol: as §2

HCT116 cells = test: cells; type: cell-based, human; settings: colon cancer; MTT, 48 h, 37 °C; DMEM + 10% FBS; 10,000 cells/well; absorbance 570 nm; n = 3 biologically independent
Protocol: as §2

E. coli gyrase = target: T1, E. coli gyrase (Escherichia coli, UniProt P0AES4+P0AES6); test: DNA gyrase supercoiling assay; type: biochemical
T1 construct: purchased TopoGen, USA
Protocol: The DNA gyrase supercoiling assay was conducted with an E. coli gyrase supercoiling kit (TopoGen, USA) in this assay. Ciprofloxacin (Sigma, USA) was used as the positive control. Assay was performed according to the manufacture’s protocol. […] The final volume of the reaction was adjusted to 19 µL with H2O. Finally, 1 µL of fresh diluted E. coli gyrase (1U) was added into the reaction mixture and incubated at 37 °C for 60 min. The reaction was terminated by addition of 2 µL of 10% SDS and 2 µL of 50 µg/mL proteinase K followed by a 30 min at 37 °C. The reaction was then extracted with 20 µL of chloroform/isoamyl alcohol (v:v, 24:1). The aqueous material loaded a on 1% (w/v) agarose gel and separated at 140 v for 1 hour in 0.5% TBE buffer. The gel was visualized using ethidium bromide staining. The intensity of SC plasmid bands was quantified using Analytik Jena image software. The intensity of SC bands was used in the determination of IC50 of tested compounds and the curve were drawn in Prism 9 (9.0.0). The assay was performed in triplicate (n = 3).

[2] = tested on: Candida albicans ATCC76485; test: MIC assay, Candida albicans; type: cell-based; settings: YPD, 16 h, n = 2
Protocol: as §1

T1 sequence (P0AES4 whole entry, one chain of several): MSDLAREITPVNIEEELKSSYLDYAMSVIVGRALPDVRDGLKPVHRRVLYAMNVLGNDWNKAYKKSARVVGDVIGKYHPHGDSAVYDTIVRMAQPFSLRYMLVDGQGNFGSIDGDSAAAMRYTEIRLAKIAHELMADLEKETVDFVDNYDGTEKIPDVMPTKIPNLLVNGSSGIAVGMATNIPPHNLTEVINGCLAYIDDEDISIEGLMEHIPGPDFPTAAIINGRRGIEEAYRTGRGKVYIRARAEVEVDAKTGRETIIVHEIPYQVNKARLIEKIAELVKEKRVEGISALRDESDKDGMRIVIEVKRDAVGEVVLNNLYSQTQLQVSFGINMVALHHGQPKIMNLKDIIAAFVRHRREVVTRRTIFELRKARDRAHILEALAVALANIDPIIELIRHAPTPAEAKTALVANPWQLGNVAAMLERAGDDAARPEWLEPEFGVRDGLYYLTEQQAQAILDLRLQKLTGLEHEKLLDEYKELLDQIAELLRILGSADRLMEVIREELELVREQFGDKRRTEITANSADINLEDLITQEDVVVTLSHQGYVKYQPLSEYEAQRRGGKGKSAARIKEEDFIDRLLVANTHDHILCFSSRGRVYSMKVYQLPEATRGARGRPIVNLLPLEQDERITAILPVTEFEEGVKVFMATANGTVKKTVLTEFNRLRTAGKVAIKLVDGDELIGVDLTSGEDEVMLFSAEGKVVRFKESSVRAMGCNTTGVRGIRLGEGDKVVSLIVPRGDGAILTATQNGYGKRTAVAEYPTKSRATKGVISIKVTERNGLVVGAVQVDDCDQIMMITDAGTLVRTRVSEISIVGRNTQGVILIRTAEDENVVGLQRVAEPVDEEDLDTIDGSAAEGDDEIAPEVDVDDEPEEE

CCCCCCCCCCCC(O)CC(=O)N[C@@H](C)C(=O)N[C@@H](CO)C(=O)N[C@@H](C)C(=O)Nc1ccc(-c2nc(-c3nc(C(=O)N[C@@H](CC(N)=O)C(=O)Nc4ccc(C(=O)Nc5ccc(C(=O)Nc6ccc(C(=O)O)cc6)c(O)c5OC(C)C)cc4)cs3)cs2)cc1 (stereo partly drawn) [Lapcin, 4-(4-(4-((2S)-4-amino-2-(2'-(4-((2S)-2-((2S)-3-hydroxy-2-((2S)-2-(3-hydroxytetradecanamido)propanamido)propanamido)propanamido)phenyl)-[2,4'-bithiazole]-4-carboxamido)-4-oxobutanamido)benzamido)-2-hydroxy-3-isopropoxybenzamido)benzoic acid]
MIC, Escherichia coli [1]: > 32 mg/L | IC50 (Colo205 cells): 0.504 nM | IC50 (HEK293 cells): 48.4 nM | IC50 (A549 cells): 2.66 nM | IC50 (U2OS (Bone) cells; bone cancer, MTT, 48 h, 37 °C, DMEM + 10% FBS + NEAA, 2,500 cells/well, absorbance 570 nm, n = 3 biologically independent): 1.29 nM | activity against U2OS in words (U2OS (Bone) cells; human bone osteosarcoma epithelial cell line U2OS): retained potent activity | IC50 (HCC1806 cells): 212 nM | IC50 (Hela (Cervical) cells): 0.986 nM | IC50 (SW480 cells): 37.2 nM | IC50 (NCI-H1299 cells): 0.0168 nM | IC50 (MCF 7 cells): 35.1 nM | potency vs etoposide, NCI-H226 (NCI-H226 cells; compared with etoposide): essentially equipotent | IC50 (NCI-H226 cells; lung cancer, MTT, 48 h, 37 °C, RPMI-1640 + 10% FBS, 10,000 cells/well, absorbance 570 nm, n = 3 biologically independent): 241 nM | IC50 (HT29 cells): 0.516 nM | IC50 (HCT116 cells): 923 nM | IC50 (E. coli gyrase): > 20500 nM | MIC, Candida albicans [2]: > 32 mg/L
